Experimental data published in article PMC8583417, “Evaluation of the Antimicrobial Efficacy of N-Acetyl-L-Cysteine, Rhamnolipids, and Usnic Acid—Novel Approaches to Fight Food-Borne Pathogens” (International Journal of Molecular Sciences, 2021).

Key:
S. Infantis S13 = assay: MIC for biofilm formation (crystal violet staining); type: cell-based, Salmonella enterica Infantis; conditions: for MICBF80: ≥80% prevention, 24 h
Method: (§1) Ten concentrations of NAC, RLs, and UA were tested to determine the minimum inhibitory concentration for planktonic growth, and subsequently, the six highest concentrations were applied on preformed biofilms to evaluate the biofilm eradication ability of the compounds. MIC was defined as the lowest substance concentration able to inhibit at least 80% of microbial growth (MICPC80 for planktonic cells, MICBC80 for further growth of biofilm cells), inhibit 80% of metabolic activity (MICBM80 for biofilm metabolic activity, MICMPB80 for metabolic activity of preformed biofilm), prevent biofilm formation by at least 80% (MICBF80 for biofilm formation), or reduce a preformed biofilm by at least 80% (MICBR80 for biofilm reduction). The results of MICs are summarized in Table 1 (planktonic cells) and Table 2 (biofilm-associated cells).
(§2) The determination of MICs was performed according to Chlumsky et al.. Briefly, 96-well flat-bottomed microtiter plates were inoculated with 75 µL (for biofilm formation) or 100 µL (for preformed biofilm) of bacterial suspension (A625nm 0.08 to 0.1) in technical triplicates and were then carefully mixed with the dilution series of the test substances (24 h cultivation at 25 °C for S. Infantis, 37 °C for other strains) or were directly cultivated to preform biofilms (18 h). For a positive control of bacterial growth, the inoculum was mixed with a pure sterile medium. Furthermore, the sterile medium was included in the plate as a marker of potential microbial contamination. To evaluate planktonic cells growth (MICPC80) and further growth of biofilm cells (MICBC80), the optical density of the content of the microtiter plates was measured spectrophotometrically at 625 nm before and after 24 h (for biofilm formation) of cultivation or before and after additional 20 h incubation with the tested compound (for preformed biofilm). The difference of A625nm was considered as a measure of the ability of cells to grow in the presence of the tested substances. To evaluate the inhibition of biofilm formation (MICBF80) and reduction in preformed biofilms (MICBR80), biomass was quantified using crystal violet staining, and its metabolic activity (MICBM80 and MICMPB80) was estimated by using the MTT (thiazyl tetrazolium bromide, Sigma-Aldrich, USA) reduction assay, both measured spectrophotometrically at 595 nm.
(§3) All inhibitions were calculated using the formula of Chlumsky et al. below (Equation (1)):(1) A625(595)nm inhibition (%)=A625(595)nm (control) – A625(595)nm(natural substance)/A625(595)nm (control)× 100 where A625(595)nm (control) is the absorbance of bacterial suspension/biofilm itself, and A625(595)nm(natural substance) is the absorbance of the bacterial suspension/biofilm with the added natural substance (NAC, RLs, and UA).
(§4) When the minimum inhibitory concentration could not be determined, the MIC was established as >the highest tested concentration for NAC, RLs, and UA.

S. Infantis S59 = assay: as above; type: cell-based, Salmonella enterica Infantis; conditions: for MICBF80: ≥80% prevention, 24 h
Method: as §1, §2, §3, §4

S. aureus 1241 = assay: MIC for biofilm metabolic activity (MTT reduction assay); type: cell-based, Staphylococcus aureus; conditions: ≥80% inhibition, 24 h
Method: as §1
as §2, with “Furthermore, the sterile medium was included in the plate as a marker of potential microbial contamination.” left out, “The difference of A625nm was considered as a measure of the ability of cells to grow in the presence of the tested substances.” left out
as §3, §4

S. aureus 816 = assay: as above; type: cell-based, Staphylococcus aureus; conditions: ≥80% inhibition, 24 h
Method: as §1
as §2, with “Furthermore, the sterile medium was included in the plate as a marker of potential microbial contamination.” left out, “The difference of A625nm was considered as a measure of the ability of cells to grow in the presence of the tested substances.” left out
as §3, §4

E. coli 683/17 = assay: MIC for reduction of preformed biofilm (crystal violet staining); type: cell-based, Escherichia coli; conditions: for maximal achieved inhibition (MICBR80 not reached), biofilm reduction: preformed biofilm, within tested concentrations; for MICBR80: ≥80% reduction of preformed biofilm (18 h), 20 h with substance
Method: as §1, §2, §3, §4

E. coli 693/17 = assay: as above; type: cell-based, Escherichia coli; conditions: for MICBR80: ≥80% reduction of preformed biofilm (18 h), 20 h with substance
Method: as §1, §2, §3, §4

[1] = test system: S. Enteritidis ATCC 13076; assay: MIC for metabolic activity of preformed biofilm (MTT reduction assay); type: cell-based, Salmonella enterica Enteritidis; conditions: for MICMPB80: ≥80% inhibition, 20 h with substance
Method: as §1
The determination of MICs was performed according to Chlumsky et al.. […] To evaluate planktonic cells growth (MICPC80) and further growth of biofilm cells (MICBC80), the optical density of the content of the microtiter plates was measured spectrophotometrically at 625 nm before and after 24 h (for biofilm formation) of cultivation or before and after additional 20 h incubation with the tested compound (for preformed biofilm). […] To evaluate the inhibition of biofilm formation (MICBF80) and reduction in preformed biofilms (MICBR80), biomass was quantified using crystal violet staining, and its metabolic activity (MICBM80 and MICMPB80) was estimated by using the MTT (thiazyl tetrazolium bromide, Sigma-Aldrich, USA) reduction assay, both measured spectrophotometrically at 595 nm.
as §3, with “UA). […]” for “UA).”

Row | SMILES | MICBF80 (S. Infantis S13) | MICBF80 (S. Infantis S59) [µg/mL] | MICBM80 (S. aureus 1241) [µg/mL] | MICBM80 (S. aureus 816) [µg/mL] | maximal achieved inhibition (MICBR80 not reached), biofilm reduction (E. coli 683/17) [%] | MICBR80 (E. coli 683/17) | MICBR80 (E. coli 693/17) | MICMPB80 [1] | maximal achieved inhibition (MICBF80 not reached) (S. Infantis S13; within tested concentrations) [%] | maximal achieved inhibition (MICBF80 not reached) (S. Infantis S59; within tested concentrations) [%] | maximal achieved inhibition (MICBR80 not reached), biofilm reduction (E. coli 693/17; preformed biofilm, within tested concentrations) [%] | maximal achieved inhibition (MICMPB80 not reached) ([1]; within tested concentrations) [%]
1 | CC(=O)N[C@@H](CS)C(=O)O [NAC, N-Acetyl-L-cysteine] | 12,500 µg/mL | 6250 | 6250 | 3130 | 68 | > 100,000 µg/mL | 100,000 µg/mL | 12,500 µg/mL | – | – | – | –
2 | CC(=O)c1c(O)c(C)c(O)c2c1OC1=CC(=O)C(C(C)=O)C(=O)C12C (single isomer, unassigned; (+)) [UA, (+)-usnic acid] | > 31.3 µg/mL | > 31.3 | 0.49 | 0.24 | 0 | > 31.3 µg/mL | > 31.3 µg/mL | > 31.3 µg/mL | 45 | 34 | 0 | 53
